Laboratory results from ChEMBL document CHEMBL1201862, “PubChem BioAssay data set” (2004).
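Dose response: 5 concentrations. Exposure: 48 h. Format: 96-well plates. Endpoint: linear interpolation; highest concentration if not reached. Here, GI50 denotes the concentration required for 50% inhibition of growth.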 Activity calls are given as the source filed them. No stated cut-off is given here; in the data, active = GI50 up to about 1.1 µM and inactive = higher.

Experiments:
Assay in all cases: NCI tumour cell line growth inhibition, 48 h
[1] = tested on: Malme-3M
[2] = tested on: HT-29
[3] = tested on: SR
[4] = tested on: SK-MEL-28
[5] = tested on: RXF 393
[6] = tested on: TK-10
[7] = tested on: COLO 205
[8] = tested on: OVCAR-3
[9] = tested on: SF-295
[10] = tested on: HCT-116
[11] = tested on: A549
[12] = tested on: SF-268
[13] = tested on: CAKI-1
[14] = tested on: NCI-H522
[15] = tested on: HCC 2998

## CC(=O)Nc1ccc(C2CC(c3ccc([N+](=O)[O-])cc3)=Nc3ccccc3S2)cc1 (configuration not stated)
[1]
  GI50: 18.3 µM (inactive)
[2]
  GI50: 15.4 µM (inactive)
[3]
  GI50: 12.9 µM (inactive)
[4]
  GI50: 18.7 µM (inactive)
[5]
  GI50: 19.3 µM (inactive)
[6]
  GI50: 23.9 µM (inactive)
[7]
  GI50: 36.8 µM (inactive)
[8]
  GI50: 23.2 µM (inactive)
[9]
  GI50: 18.6 µM (inactive)
[10]
  GI50: 9.75 µM (inactive)
[11]
  GI50: 20.6 µM (inactive)
[12]
  GI50: 24 µM (inactive)
[13]
  GI50: 24 µM (inactive)
[14]
  GI50: > 10 µM (inactive)

## COC(=O)C1(C(=O)OC)CC2c3c(c4ccccc4n3C)CC(C1=O)N2Cc1ccccc1 (configuration not stated)
[15]
  GI50: > 100 µM (inactive)
[1]
  GI50: > 100 µM (inactive)
[2]
  GI50: > 100 µM (inactive)
[4]
  GI50: 80 µM (inactive)
[5]
  GI50: 29.8 µM (inactive)
[6]
  GI50: > 100 µM (inactive)
[7]
  GI50: > 100 µM (inactive)
[8]
  GI50: > 100 µM (inactive)
[9]
  GI50: > 100 µM (inactive)
[10]
  GI50: > 100 µM (inactive)
[11]
  GI50: > 100 µM (inactive)
[12]
  GI50: > 100 µM (inactive)
[13]
  GI50: > 100 µM (inactive)
[14]
  GI50: 57.3 µM (inactive)

## Cc1ccc(NC(=O)CC(=O)n2nc(C)c(/N=N/c3ccccc3C(=O)O)c2C)cc1
[15]
  GI50: > 100 µM (inactive)
[1]
  GI50: > 100 µM (inactive)
[2]
  GI50: > 100 µM (inactive)
[4]
  GI50: > 100 µM (inactive)
[6]
  GI50: > 100 µM (inactive)
[7]
  GI50: > 100 µM (inactive)
[8]
  GI50: > 100 µM (inactive)
[9]
  GI50: > 100 µM (inactive)
[10]
  GI50: > 100 µM (inactive)
[11]
  GI50: > 100 µM (inactive)
[12]
  GI50: > 100 µM (inactive)
[13]
  GI50: > 100 µM (inactive)
[14]
  GI50: > 100 µM (inactive)

## Cc1[nH]c2ccccc2c1C1Cc2ccccc2N1C(=O)/C=C/C(=O)O (configuration not stated)
[15]
  GI50: > 100 µM (inactive)
[1]
  GI50: > 100 µM (inactive)
[2]
  GI50: > 100 µM (inactive)
[3]
  GI50: > 100 µM (inactive)
[5]
  GI50: > 100 µM (inactive)
[6]
  GI50: > 100 µM (inactive)
[7]
  GI50: > 100 µM (inactive)
[8]
  GI50: > 100 µM (inactive)
[9]
  GI50: > 100 µM (inactive)
[10]
  GI50: > 100 µM (inactive)
[11]
  GI50: > 100 µM (inactive)
[12]
  GI50: > 100 µM (inactive)
[13]
  GI50: > 100 µM (inactive)
[14]
  GI50: > 100 µM (inactive)

## O=C(CSc1nnc(-c2ccc(/N=C\c3ccc(Cl)cc3)cc2)o1)Nc1cccc(Cl)c1
[1]
  GI50: > 100 µM (inactive)
[2]
  GI50: > 100 µM (inactive)
[3]
  GI50: > 100 µM (inactive)
[4]
  GI50: > 100 µM (inactive)
[5]
  GI50: 80.5 µM (inactive)
[6]
  GI50: > 100 µM (inactive)
[7]
  GI50: > 100 µM (inactive)
[9]
  GI50: > 100 µM (inactive)
[10]
  GI50: > 100 µM (inactive)
[11]
  GI50: > 100 µM (inactive)
[12]
  GI50: > 100 µM (inactive)
[14]
  GI50: 36.1 µM (inactive)

## S=C(Nc1ccccc1)N(/N=C/C=C/c1ccccc1)c1nnc(-c2ccccc2)c(-c2ccccc2)n1
[15]
  GI50: 76.7 µM (inactive)
[1]
  GI50: 57.7 µM (inactive)
[2]
  GI50: 99.1 µM (inactive)
[4]
  GI50: 54.6 µM (inactive)
[5]
  GI50: 50.9 µM (inactive)
[6]
  GI50: 95.3 µM (inactive)
[7]
  GI50: > 100 µM (inactive)
[8]
  GI50: 38.6 µM (inactive)
[9]
  GI50: 42.9 µM (inactive)
[11]
  GI50: 38.6 µM (inactive)
[12]
  GI50: 30.5 µM (inactive)
[13]
  GI50: 50.7 µM (inactive)
[14]
  GI50: 27.2 µM (inactive)

## Cc1ccccc1N1C(=O)/C(=C/c2ccc(N(CCC#N)CCC#N)cc2)N=C1c1cc([N+](=O)[O-])ccc1Cl
[15]
  GI50: > 100 µM (inactive)
[1]
  GI50: > 100 µM (inactive)
[2]
  GI50: > 100 µM (inactive)
[3]
  GI50: 7.19 µM (inactive)
[4]
  GI50: > 100 µM (inactive)
[7]
  GI50: 18.8 µM (inactive)
[8]
  GI50: 59.3 µM (inactive)
[9]
  GI50: 31 µM (inactive)
[12]
  GI50: > 100 µM (inactive)
[13]
  GI50: > 100 µM (inactive)
[14]
  GI50: > 100 µM (inactive)

## Cn1nc(-c2ccccc2)c(C(=O)/C=C/c2ccccc2)c(N2CCOCC2)c1=O
[2]
  GI50: 17.7 µM (inactive)
[4]
  GI50: > 10 µM (inactive)
[5]
  GI50: 12.6 µM (inactive)
[6]
  GI50: 32.8 µM (inactive)
[7]
  GI50: 19.5 µM (inactive)
[10]
  GI50: 14.4 µM (inactive)
[11]
  GI50: 20.3 µM (inactive)
[12]
  GI50: 16.9 µM (inactive)
[14]
  GI50: 12.9 µM (inactive)

## CCOC(=O)NC(=O)c1cn(CCN2CCN(C(=O)NCCCCCCNC(=O)N3CCN(CCn4cc(C(=O)NC(=O)OCC)c(=O)n(CCN(CC)CC)c4=O)CC3)CC2)c(=O)n(CCC(CC)CC)c1=O
[15]
  GI50: > 100 µM (inactive)
[1]
  GI50: > 100 µM (inactive)
[2]
  GI50: > 100 µM (inactive)
[3]
  GI50: > 100 µM (inactive)
[4]
  GI50: > 100 µM (inactive)
[5]
  GI50: > 100 µM (inactive)
[6]
  GI50: > 100 µM (inactive)
[7]
  GI50: > 100 µM (inactive)
[8]
  GI50: > 100 µM (inactive)
[9]
  GI50: > 100 µM (inactive)
[10]
  GI50: > 100 µM (inactive)
[11]
  GI50: > 100 µM (inactive)
[12]
  GI50: > 100 µM (inactive)
[14]
  GI50: > 100 µM (inactive)

## O=[N+]([O-])c1cc(Cl)ccc1OCc1ccccc1
[15]
  GI50: > 100 µM (inactive)
[1]
  GI50: 99.3 µM (inactive)
[2]
  GI50: 29.6 µM (inactive)
[3]
  GI50: 26.4 µM (inactive)
[4]
  GI50: > 100 µM (inactive)
[5]
  GI50: 47.3 µM (inactive)
[6]
  GI50: > 100 µM (inactive)
[7]
  GI50: > 100 µM (inactive)
[8]
  GI50: 33 µM (inactive)
[9]
  GI50: 56.6 µM (inactive)
[10]
  GI50: 55.6 µM (inactive)
[11]
  GI50: 26.2 µM (inactive)
[12]
  GI50: > 100 µM (inactive)

## O=c1c2cc(-c3ccccc3)sc2nc2sc(-c3ccccc3)nn12
[1]
  GI50: > 100 µM (inactive)
[2]
  GI50: > 100 µM (inactive)
[3]
  GI50: > 100 µM (inactive)
[5]
  GI50: > 100 µM (inactive)
[6]
  GI50: > 100 µM (inactive)
[7]
  GI50: > 100 µM (inactive)
[8]
  GI50: > 100 µM (inactive)
[9]
  GI50: > 100 µM (inactive)
[10]
  GI50: > 100 µM (inactive)
[11]
  GI50: > 100 µM (inactive)
[12]
  GI50: > 100 µM (inactive)
[13]
  GI50: > 100 µM (inactive)
[14]
  GI50: > 100 µM (inactive)

## CC(=O)c1cccc(NC(=O)C(=O)C(C2OC(=O)c3ccccc32)[N+](=O)[O-])c1 (configuration not stated)
[15]
  GI50: > 100 µM (inactive)
[1]
  GI50: > 100 µM (inactive)
[2]
  GI50: > 100 µM (inactive)
[3]
  GI50: > 100 µM (inactive)
[4]
  GI50: > 100 µM (inactive)
[5]
  GI50: > 100 µM (inactive)
[6]
  GI50: > 100 µM (inactive)
[7]
  GI50: > 100 µM (inactive)
[8]
  GI50: > 100 µM (inactive)
[9]
  GI50: > 100 µM (inactive)
[10]
  GI50: > 100 µM (inactive)
[11]
  GI50: > 100 µM (inactive)
[12]
  GI50: > 100 µM (inactive)
[13]
  GI50: > 100 µM (inactive)

## O=C1C2C3C=C4c5ccccc5N(c5ccccc5)C4(C2C(=O)N1c1ccc([N+](=O)[O-])cc1)[C@H]1C(=O)N(c2ccc([N+](=O)[O-])cc2)C(=O)[C@@H]31 (some centres not stated)
[15]
  GI50: > 100 µM (inactive)
[1]
  GI50: > 100 µM (inactive)
[2]
  GI50: > 100 µM (inactive)
[4]
  GI50: > 100 µM (inactive)
[5]
  GI50: > 100 µM (inactive)
[6]
  GI50: > 100 µM (inactive)
[7]
  GI50: > 100 µM (inactive)
[8]
  GI50: > 100 µM (inactive)
[9]
  GI50: > 100 µM (inactive)
[10]
  GI50: > 100 µM (inactive)
[11]
  GI50: > 100 µM (inactive)
[12]
  GI50: > 100 µM (inactive)
[13]
  GI50: > 100 µM (inactive)
[14]
  GI50: > 100 µM (inactive)

## COC(=O)C1=C(O)c2cc(OC)c(OC)c(OC)c2C(c2ccc3c(c2)OCO3)[C@@H]1C(=O)OC (some centres not stated)
[15]
  GI50: 4.97 µM (inactive)
[1]
  GI50: 3.44 µM (inactive)
[2]
  GI50: 2.84 µM (inactive)
[3]
  GI50: 3.66 µM (inactive)
[4]
  GI50: 7.31 µM (inactive)
[5]
  GI50: 2.29 µM (inactive)
[6]
  GI50: 7.18 µM (inactive)
[7]
  GI50: 2.24 µM (inactive)
[8]
  GI50: 1.99 µM (inactive)
[9]
  GI50: 2.01 µM (inactive)
[10]
  GI50: 4.36 µM (inactive)
[11]
  GI50: 4.68 µM (inactive)
[12]
  GI50: 4.28 µM (inactive)
[13]
  GI50: 0.935 µM (active)
